Values of other authors in publication PMC6108082 (Journal of medicinal chemistry, 2018).

System: P-glycoprotein

Compound: CCCc1ccc(-c2ccc(N(C[C@@H](N)[C@@H](C)CC)C(=O)[C@@H]3C[C@H]3c3ccccn3)cc2)cc1.Cl [compound 1, 2-PCCA]
- P-glycoprotein substrate activity: substrate of P-glycoprotein
